Source: paper PMC1890308, “Anti-calmodulins and Tricyclic Adjuvants in Pain Therapy Block the TRPV1 Channel” (PLoS ONE, 2007)
Values joined by “and” are separate entries in the source; they are usually repeats but may differ in a detail not shown here. Equal values may be shown once.

Assays:
[1] = target: TRPV1 (Rattus norvegicus, UniProt O35433); experiment: capsaicin-induced Ca2+-uptake in human TRPV1-HaCaT keratinocyte line; type: cell-based; set-up: expressed in transfected cells; conditions: data not shown
Procedure: (§1) Assays were carried out in 2×10^−5 M extracellular Ca^2+ in 96 well plate formats at room temperature (22°C) for 10 min with robotic liquid handling. […] We hypothesized that calmodulin antagonists and some registered drugs may exert their blocking effect with another mechanisms on TRPV1 and not necessarily on their conventional target.
(§2) TRPV1-NIH3T3 mouse fibroblast line, ectopically expressing the rat TRPV1 was established previously.
Vanilloid agonist inducible calcium transport was assayed in adherent cell lines ectopically expressing the C-terminally ε-tagged rat TRPV1 (3×10^4 cells/well) and primary cultures prepared from embryonic DRG, seeded in poly-D lysine/collagen coated 96 well plates. […] The previously established cell lines and standardized DRG cultures were extensively characterized for functional cell-based TRPV1 studies [1]–[4]. Immediately before the transport assay, cells were adapted to room temperature (20°C) for 5 min in HCM. ^45Ca^2+-uptake was performed for 10 min at 20°C in HCM using 0.1 µCi ^45Ca^2+ as radioactive tracer in a 100 µl final volume. […] Aliquots of the solubilized cell extracts were mixed with 120 µl Microscint-40 and counted in a 96 well plate liquid scintillation counter (TopCount-NXT, Packard).

[2] = test system: heat-induced tail-flick; set-up: method as in PMID 8883861; conditions: cited from earlier work
[3] = target: T1, rat TRPV1 (Rattus norvegicus, UniProt O35433); experiment: capsaicin-induced 45Ca2+-uptake in TRPV1-NIH3T3 cells; type: cell-based
T1 construct: expressed in transfected cells
Procedure: as §1, §2
Vanilloid agonist inducible calcium transport was assayed in adherent cell lines ectopically expressing the C-terminally ε-tagged rat TRPV1 (3×10^4 cells/well) and primary cultures prepared from embryonic DRG, seeded in poly-D lysine/collagen coated 96 well plates. […] The previously established cell lines and standardized DRG cultures were extensively characterized for functional cell-based TRPV1 studies [1]–[4]. Immediately before the transport assay, cells were adapted to room temperature (20°C) for 5 min in HCM. ^45Ca^2+-uptake was performed for 10 min at 20°C in HCM using 0.1 µCi ^45Ca^2+ as radioactive tracer in a 100 µl final volume. To stop ^45Ca^2+-uptake, cells were rapidly changed back into 0.2 ml HCM, washed 4 additional times with 0.2 ml HCM, and then lysed in 80 µl/well RIPA buffer (50 mM Tris-HCl, pH 7.5, 150 mM NaCl, 1% Triton X-100, 0.5% deoxycholate, 0.1% SDS, 5 mM EDTA) for 30 min [1]–[4]. Aliquots of the solubilized cell extracts were mixed with 120 µl Microscint-40 and counted in a 96 well plate liquid scintillation counter (TopCount-NXT, Packard).

[4] = test system: formalin-induced pain; set-up: method as in PMID 8883861; conditions: rat, intrathecal; cited from earlier work
[5] = test system: NMDA receptors; experiment: NMDA-evoked responses of spinal dorsal horn neurons, microiontophoresis; type: in vivo; conditions: anesthetized rat, iontophoresis, mean±SD, n = 16
Procedure: In another set of experiments, effects of calmidazolium were investigated on the responses of dorsal horn neurons evoked by NMDA and kainic acid agonists of different glutamate receptors, well characterized transducers of pain signals, more centrally. Neuronal firing responses to iontophoresed NMDA or kainic acid were typically fast in onset and short in duration (Fig. 8). Ejection currents for these excitatory agents were delivered alternately in every 2 min and were selected to produce a maximal peak height of 50–70 spikes/s which corresponded to 300–400 action potentials per stimulation epoch. Iontophoretic application of calmidazolium produced significant reduction in responses to both NMDA and kainic acid. Maximal inhibition of NMDA- or kainic acid -evoked responses were reached 15–20 min after calmidazolium application and remained so during the rest of the 2 hour long experiment. […]
Extracellular single-neuron recordings were made in chloral hydrate-anesthetized ([…] initial dose, i.p., with supplemental doses as required) male Wistar rats weighing between 350–450 g. […] Rectal temperature as well as the temperature of the mineral oil were monitored with temperature probes and kept at 37°C by a warm water-heated blanket beneath the rat and an infrared heat lamp from above. […]

[6] = increasing concentrations of capsaicin

T1 sequence (O35433 whole entry): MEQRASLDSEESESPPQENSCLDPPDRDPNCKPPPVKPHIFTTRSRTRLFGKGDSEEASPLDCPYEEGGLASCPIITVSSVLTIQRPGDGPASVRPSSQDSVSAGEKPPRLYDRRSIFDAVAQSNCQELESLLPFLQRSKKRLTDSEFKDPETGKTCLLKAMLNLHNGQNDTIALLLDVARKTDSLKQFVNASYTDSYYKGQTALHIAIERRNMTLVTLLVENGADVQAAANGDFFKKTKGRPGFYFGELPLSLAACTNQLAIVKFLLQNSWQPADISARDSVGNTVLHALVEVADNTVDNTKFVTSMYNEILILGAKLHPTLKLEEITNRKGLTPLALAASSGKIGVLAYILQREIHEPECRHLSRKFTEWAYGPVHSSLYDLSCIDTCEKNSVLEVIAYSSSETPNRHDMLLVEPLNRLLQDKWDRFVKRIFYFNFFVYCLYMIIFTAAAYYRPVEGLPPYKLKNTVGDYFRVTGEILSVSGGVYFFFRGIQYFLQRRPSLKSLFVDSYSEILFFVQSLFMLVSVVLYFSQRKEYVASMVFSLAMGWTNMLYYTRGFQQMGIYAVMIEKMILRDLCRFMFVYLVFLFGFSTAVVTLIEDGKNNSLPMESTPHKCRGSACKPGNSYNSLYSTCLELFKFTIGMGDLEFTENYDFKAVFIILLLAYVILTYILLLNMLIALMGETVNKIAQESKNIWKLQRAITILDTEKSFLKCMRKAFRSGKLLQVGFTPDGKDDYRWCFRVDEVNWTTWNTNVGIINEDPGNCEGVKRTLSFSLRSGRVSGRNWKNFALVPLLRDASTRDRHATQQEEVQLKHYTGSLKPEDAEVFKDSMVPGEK
Chain of TRPV1 (O35433 whole entry): as above

## Clc1ccc(C(c2ccc(Cl)cc2)n2cc[n+](CC(OCc3ccc(Cl)cc3Cl)c3ccc(Cl)cc3Cl)c2)cc1 (centres unmarked) [calmidazolium]
[1]
  efficacy on TRPV1 (in words): µM scale
[2]
  effect on heat-induced tail-flick latency: inhibit
[3]; 2 µM capsaicin
  antagonist activity on capsaicin-induced Ca2+-uptake (in words): full antagonists
[3]; 2 µM capsaicin, 10 min, 2×10^−5 M extracellular Ca2+, room temperature, read-out: IC50, inhibition of capsaicin-induced 45Ca2+-uptake
  IC50: 7 µM and ~2 µM
[3]; [6]
  concentration above which Ca2+-transport was almost completely abolished: > 2.5 µM
  kinetics of Ca2+-transport inhibition: decreased Vmax
[4]
  analgesia in both phases of formalin tests: analgesic
[5]
  responses to NMDA, % of pre-calmidazolium baseline control: 13±12%
